These results are taken from patent US7119082B2, “11β-long-chain-substituted 19-nor-17α-pregna-1,3,5(10)-trien-17β-ols with a 21,16α-lactone ring” (priority 2002, dated 2006).

Where two headings read alike, the source gives them in different places.

The target in assay [1] is T1, estrogen receptor from the rat uterus (Rattus norvegicus, UniProt P06211).
T1 construct: The preparation of rat uterus cytosol as well as the receptor test with the estrogen-receptor-containing cytosol; from tissue; host or cells: rat uterus cytosol
T1 sequence (P06211 1-600): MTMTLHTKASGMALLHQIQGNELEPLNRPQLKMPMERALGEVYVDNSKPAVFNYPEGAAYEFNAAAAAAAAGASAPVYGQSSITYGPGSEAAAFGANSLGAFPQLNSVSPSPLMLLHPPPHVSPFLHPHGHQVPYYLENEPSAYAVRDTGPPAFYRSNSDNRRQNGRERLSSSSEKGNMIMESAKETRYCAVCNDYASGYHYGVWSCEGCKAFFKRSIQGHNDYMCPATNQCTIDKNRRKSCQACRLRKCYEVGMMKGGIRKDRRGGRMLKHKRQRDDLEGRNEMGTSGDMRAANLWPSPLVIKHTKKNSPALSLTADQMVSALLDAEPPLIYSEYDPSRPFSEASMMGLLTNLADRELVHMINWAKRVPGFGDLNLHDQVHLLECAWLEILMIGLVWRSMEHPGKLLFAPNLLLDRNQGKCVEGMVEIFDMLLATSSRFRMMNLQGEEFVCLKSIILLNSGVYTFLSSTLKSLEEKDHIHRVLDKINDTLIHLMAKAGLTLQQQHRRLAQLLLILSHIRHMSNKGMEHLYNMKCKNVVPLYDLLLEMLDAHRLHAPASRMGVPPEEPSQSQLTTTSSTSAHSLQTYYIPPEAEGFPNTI
As to the kind of experiment: Estrogen receptor binding, rat uterus cytosol, competition with 3H-estradiol.

In assay [2] the test system is estrogen receptor from the rat uterus. Described as above.
Assay [3] deals with estrogen receptor from the rat prostate. The experiment in a line: Estrogen receptor binding, rat prostate cytosol, competition with 3H-estradiol. The note with it: for Rat Prostate ER (RBA): Table 1, 3H-estradiol as ligand.
Assay [4] deals with hER β. As to the kind of experiment: Relative binding affinity to hER β (cited from Kuiper et al.). Details: species or system human. Conditions: Table 2; quotient of the cited RBA values. An excerpt: In this case, it is assumed that ERβ predominates in the rat prostate over ERα, and ERα predominates in the rat uterus over ERβ.
The test system of assay [5] is hER β. Conditions: Table 2; cited from Kuiper et al. (1996), Endocrinology 138: 863-870; cited from earlier work.
Assay [6] concerns MCF-7 breast cancer cells. As to the kind of experiment: Cell proliferation assay, estradiol-stimulated MCF-7, crystal violet. The class given is cell-based. The note with it: Homo sapiens, MCF7, 168 h; concentration 10^-5 M; 7 days; FIG. 1.
Setting [7] is: relative binding affinity, estradiol = 100.

Turning to `C[C@]12CC[C@H](O)CC1=CCC1C2CC[C@@]2(C)C1CC[C@@H]2O` (stereo partly shown) [5-Andros-ten-diol], in assay [1], the “Rat uterus ER(RBA)” value stood at 0.1. Further, in assay [2] (Table 2, ratio of rat ER RBA values as headed), the Uterus-ER/Prostata-ER turned out to be 50. In addition, the “Rat prost. ER(RBA)” value in assay [3] is recorded as 5. In addition, the ERβ/ERα in the assay with hER β [4] was 3. Moreover, the “hER β RBA” value in the assay with hER β [5] is given as 17.

With `CCCCCC[C@H]1C[C@@]2(C)C(C[C@H]3OC(=O)C[C@]32O)C2CCc3cc(O)ccc3C21` (stereo partly drawn) [Compound 1, 3,17β-Dihydroxy-11β-hexyl-19-nor-17α-pregna-1,3,5(10)-triene-21,16α-lactone], in assay [1] (Table 1, relative binding affinity, estradiol = 100, 3H-estradiol as ligand), the “Rat uterus ER(RBA)” value is given as 26.2. For the same molecule, the Uterus-ER/Prostate-ER in assay [2] (Table 1, ratio of RBA rat uterus ER to rat prostate ER) was 22. For the same molecule, the “Binding affinity, rat uterus ER compared with rat prostate ER (in words)” value in assay [2] (see Table 1) is listed as “higher binding affinity to the estrogen receptor from the rat uterus than to the estrogen receptor from the rat prostate”. For the same molecule, in assay [3] (setting [7]), the “Rat Prostate ER (RBA)” value amounted to 1.2. The inhibition at 10 µM in assay [6] was 100%.

With `C[C@]12CCC3c4ccc(O)cc4CCC3C1CC[C@@H]2O` (stereo partly shown) [Estradiol], in assay [3] (setting [7]), the “Rat Prostate ER (RBA)” value was 100. In addition, the “Rat prost. ER(RBA)” value in assay [3] (Table 2, relative binding affinity, estradiol = 100) is reported as 100.

As for `C[C@]12CC[C@@H]3c4ccc(O)cc4CC[C@H]3[C@@H]1C[C@@H](O)[C@@H]2O` [Estriol], the “hER β RBA” value in the assay with hER β [5] is given as 21.
